Like-named read-outs stand apart in the source and are kept apart here.
Columns and labels:
[1] = target: safety screen panel of human pharmacological targets (Homo sapiens, UniProt P22303); assay: biochemical; conditions: read-out: percent inhibition: acetylcholinesterase (h)
[2] = target: safety screen panel of human pharmacological targets (Homo sapiens, UniProt P41595); assay: biochemical; conditions: read-out: percent inhibition: 5-HT2B (h) (agonist radioligand)
[3] = target: safety screen panel of human pharmacological targets (Homo sapiens, UniProt Q12809)
[4] = tested on: safety screen panel of human pharmacological targets
[5] = Rat plasma toxicokinetics post VB302 administration at 1,000 mg/kg; conditions: both, Sprague Dawley, po, 1000 mg/kg, AUC in plasma, post VB302 oral gavage 1,000 mg/kg, 1, 2, 6, 24 hours, label = analyte in plasma
[6] = Antimicrobial activity observed in phytocannabinoid glycosylation reaction mixtures; conditions: large-scale glycosylation reaction mixtures
[7] = tested on: Lallzyme Beta™ (Lallemand); assay: In vitro digestion with Lallzyme Beta; conditions: 5 mg/ml Lallzyme Beta, 20 mM citrate buffer pH 4.0, 44° C.; HPLC
[8] = Rat plasma toxicokinetics post VB311 administration at 1,000 mg/kg; conditions: for relative amount in plasma: label = analyte
[9] = target: safety screen panel of human pharmacological targets (Homo sapiens, UniProt P21554); assay: biochemical; conditions: read-out: percent inhibition: CB1 (h) (agonist radioligand)
[10] = target: T1, human cannabinoid receptor type 1 (CB1R) (Homo sapiens, UniProt P21554); assay type: binding; conditions: 10 µM test compound; 2.0 nanomolar [3H] SR141716A; human recombinant Chem-1 cells; 90 minutes at 37 C
T1 construct: expressed in transfected cells; host or cells: Chem-1 cells

[11] = tested on: Vinotaste Pro (Novozymes); assay: In vitro digestion with Vinotaste Pro; conditions: same digestion conditions as for Lallzyme Beta; HPLC
glycoside hydrolases = assay: In vitro digestion screening with commercially available glycoside hydrolases (Table K); conditions: Enzyme 1 of Table K
[12] = 24 hours post VB311 oral gavage
[13] = 10 micromolar test article, Adrenergic a1A receptor
[14] = 10 micromolar test article, Adrenergic α2A receptor
[15] = 10 micromolar test article, Benzodiazapine GABA channel
[16] = 10 micromolar test article, Calcium Channel L-Type, Dihydropyridine
[17] = 10 micromolar test article, Dopamine D2S receptor
[18] = 10 micromolar test article, N-Methyl-D-aspartate
[19] = 10 micromolar test article, Phosphodiesterase 4D2
[20] = 10 micromolar test article, Sodium channel
[21] = 10 micromolar test article, Voltage-gated potassium channel
[22] = 10 micromolar test article, results greater than 50% deemed significant

Sequence of safety screen panel of human pharmacological targets (Homo sapiens, UniProt Q12809) (Q12809 whole entry): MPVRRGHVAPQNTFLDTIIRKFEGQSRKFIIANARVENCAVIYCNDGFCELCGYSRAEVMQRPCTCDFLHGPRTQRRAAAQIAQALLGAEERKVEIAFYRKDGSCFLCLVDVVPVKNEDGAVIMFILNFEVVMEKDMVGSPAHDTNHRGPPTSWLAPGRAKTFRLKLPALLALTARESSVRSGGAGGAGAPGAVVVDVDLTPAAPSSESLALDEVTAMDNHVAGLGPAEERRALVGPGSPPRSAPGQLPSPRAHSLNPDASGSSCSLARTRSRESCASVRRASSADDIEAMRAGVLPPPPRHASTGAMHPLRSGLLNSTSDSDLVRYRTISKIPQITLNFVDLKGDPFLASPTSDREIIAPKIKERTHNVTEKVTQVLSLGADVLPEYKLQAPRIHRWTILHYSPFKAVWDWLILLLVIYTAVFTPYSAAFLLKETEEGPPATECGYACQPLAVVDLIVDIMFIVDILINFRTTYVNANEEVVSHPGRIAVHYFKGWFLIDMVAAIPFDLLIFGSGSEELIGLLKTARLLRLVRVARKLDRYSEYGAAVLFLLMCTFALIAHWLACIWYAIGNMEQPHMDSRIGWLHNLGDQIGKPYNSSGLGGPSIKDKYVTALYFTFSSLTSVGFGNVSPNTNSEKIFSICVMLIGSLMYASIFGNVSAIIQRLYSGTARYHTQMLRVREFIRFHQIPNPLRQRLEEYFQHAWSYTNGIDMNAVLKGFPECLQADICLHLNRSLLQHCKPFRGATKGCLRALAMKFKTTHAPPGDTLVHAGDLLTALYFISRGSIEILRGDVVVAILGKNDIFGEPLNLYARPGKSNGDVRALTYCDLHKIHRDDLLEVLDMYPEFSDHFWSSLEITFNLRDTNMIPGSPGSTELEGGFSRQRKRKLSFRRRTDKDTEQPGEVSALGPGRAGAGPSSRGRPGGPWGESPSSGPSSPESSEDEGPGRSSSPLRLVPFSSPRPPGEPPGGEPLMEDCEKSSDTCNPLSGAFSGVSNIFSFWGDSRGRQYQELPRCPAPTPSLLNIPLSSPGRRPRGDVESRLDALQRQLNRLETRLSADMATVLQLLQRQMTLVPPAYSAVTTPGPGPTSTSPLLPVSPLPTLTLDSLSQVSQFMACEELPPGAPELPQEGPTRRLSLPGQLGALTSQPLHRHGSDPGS
Sequence of safety screen panel of human pharmacological targets (Homo sapiens, UniProt P41595) (P41595 whole entry): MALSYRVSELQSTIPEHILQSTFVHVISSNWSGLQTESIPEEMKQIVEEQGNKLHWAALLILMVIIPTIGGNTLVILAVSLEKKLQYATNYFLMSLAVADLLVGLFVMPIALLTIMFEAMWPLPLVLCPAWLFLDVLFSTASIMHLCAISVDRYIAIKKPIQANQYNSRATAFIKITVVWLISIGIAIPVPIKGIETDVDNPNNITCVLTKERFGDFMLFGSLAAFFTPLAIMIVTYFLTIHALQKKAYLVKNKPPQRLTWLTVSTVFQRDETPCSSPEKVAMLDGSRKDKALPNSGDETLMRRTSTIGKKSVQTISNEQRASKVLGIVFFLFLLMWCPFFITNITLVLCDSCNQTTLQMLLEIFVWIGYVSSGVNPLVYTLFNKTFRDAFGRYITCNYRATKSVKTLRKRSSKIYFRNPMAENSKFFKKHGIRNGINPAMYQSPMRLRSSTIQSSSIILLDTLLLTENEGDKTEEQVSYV
Sequence of safety screen panel of human pharmacological targets (Homo sapiens, UniProt P22303) (P22303 32-614): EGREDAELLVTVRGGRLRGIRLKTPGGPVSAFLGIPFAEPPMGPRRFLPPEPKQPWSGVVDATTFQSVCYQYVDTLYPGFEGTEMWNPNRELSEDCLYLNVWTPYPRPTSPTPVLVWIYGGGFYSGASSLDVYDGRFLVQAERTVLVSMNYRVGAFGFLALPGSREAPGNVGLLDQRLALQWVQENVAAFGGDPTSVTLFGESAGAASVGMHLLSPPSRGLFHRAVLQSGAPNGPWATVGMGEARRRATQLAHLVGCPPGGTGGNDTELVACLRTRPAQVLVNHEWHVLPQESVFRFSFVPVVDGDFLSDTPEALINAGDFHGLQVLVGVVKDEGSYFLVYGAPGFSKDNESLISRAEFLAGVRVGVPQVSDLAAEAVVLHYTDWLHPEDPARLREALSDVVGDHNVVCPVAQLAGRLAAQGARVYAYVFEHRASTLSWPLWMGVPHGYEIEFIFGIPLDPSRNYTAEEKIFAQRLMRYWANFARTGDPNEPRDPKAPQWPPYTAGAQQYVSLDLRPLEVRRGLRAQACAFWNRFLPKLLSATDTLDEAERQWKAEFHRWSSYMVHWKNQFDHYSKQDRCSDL
Sequence of safety screen panel of human pharmacological targets (Homo sapiens, UniProt P21554) (P21554 whole entry): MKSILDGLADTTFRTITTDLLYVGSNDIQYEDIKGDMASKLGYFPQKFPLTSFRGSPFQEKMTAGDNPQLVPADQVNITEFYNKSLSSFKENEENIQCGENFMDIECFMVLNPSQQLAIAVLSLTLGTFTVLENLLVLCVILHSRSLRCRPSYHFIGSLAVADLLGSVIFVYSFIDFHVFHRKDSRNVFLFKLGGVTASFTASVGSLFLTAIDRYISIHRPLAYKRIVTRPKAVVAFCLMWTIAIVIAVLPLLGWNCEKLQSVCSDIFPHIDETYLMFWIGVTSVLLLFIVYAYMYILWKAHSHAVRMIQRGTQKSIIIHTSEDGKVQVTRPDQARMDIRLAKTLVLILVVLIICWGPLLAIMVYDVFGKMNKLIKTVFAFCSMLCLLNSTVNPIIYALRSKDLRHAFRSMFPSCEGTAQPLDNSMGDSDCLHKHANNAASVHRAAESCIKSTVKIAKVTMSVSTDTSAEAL
T1 sequence (P21554 whole entry): as above

| Compound | inhibition at 10 µM [1] | inhibition at 10 µM [2] | AUC [5] | digestion by Lallzyme Beta (extent / products) [7] | relative amount in plasma ([8]; 1 hour post VB311 oral gavage) | relative amount in plasma ([8]; 2 hours post VB311 oral gavage) | relative amount in plasma ([8]; 6 hours post VB311 oral gavage) | relative amount in plasma [8, 12] | inhibition at 10 µM [9] | percent inhibition: Potassium Channel hERG (human)- [3H] Dofetilide ([3]; 10 micromolar test article) | percent inhibition: alpha 1A(h) (antagonist radioligand) [4, 13] | percent inhibition: alpha 2A (h) (antagonist radioligand) [4, 14] | percent inhibition: BZD (central) (agonist radioligand) [4, 15] | percent inhibition: Ca2+ channel (L. dihydropyridine site) (antagonist radioligand) [4, 16] | percent inhibition: D2S (h) (agonist radioligand) [4, 17] | percent inhibition: NMDA (antagonist radioligand) [4, 18] | percent inhibition: PDE4D2 (h) [4, 19] | percent inhibition: Na+ channel (site 2) (antagonist radioligand) [4, 20] | percent inhibition: KV channel (antagonist radioligand) [4, 21] | number of the 44 pharmacological targets whose binding is significantly inhibited or disrupted [4, 22] | also measured |
| --- | --- | --- | --- | --- | --- | --- | --- | --- | --- | --- | --- | --- | --- | --- | --- | --- | --- | --- | --- | --- | --- |
| CCCCCc1cc(O)c2c(c1)OC(C)(C)[C@@H]1CCC(C)=C[C@@H]21 [VB301, Δ9-Terahydrocannabinol, reference compound] | 30% | 90% | 72 ng·h/mL | – | – | – | – | – | – | – | – | – | – | – | – | – | – | – | – | – | percent inhibition: Potassium Channel hERG (human)- [3H] Dofetilide ([3]; human): 67%; percent inhibition: BZD (central) (agonist radioligand) [4]: 2%; percent inhibition: Ca2+ channel (L. dihydropyridine site) (antagonist radioligand) [4]: 59%; percent inhibition: D2S (h) (agonist radioligand) [4]: 13%; percent inhibition: KV channel (antagonist radioligand) [4]: 5%; percent inhibition: NMDA (antagonist radioligand) [4]: 10%; percent inhibition: Na+ channel (site 2) (antagonist radioligand) [4]: 65%; percent inhibition: PDE4D2 (h) [4]: -11%; percent inhibition: alpha 1A(h) (antagonist radioligand) [4]: 6%; percent inhibition: alpha 2A (h) (antagonist radioligand) [4]: 94%; number of the 44 pharmacological targets whose binding is significantly inhibited or disrupted ([4]; human): 16; antimicrobial activity [6]: noticeable antimicrobial activity |
| CCCCCc1cc(O[C@@H]2O[C@H](CO)[C@@H](O)[C@H](O)[C@H]2O)c2c(c1)OC(C)(C)[C@@H]1CCC(C)=C[C@@H]21 [VB302, Δ9THC-1-O-glucopyranoside] | -1% | -5% | 167000 ng·h/mL | unable to hydrolyze VB302 back to THC | Minor quantities | Minor quantities | predominant THC-glycoside present in the plasma | relative abundance was greatly increased | -3% | -23% | -5% | 0% | -10% | 22% | 22% | 8% | -8% | 13% | 1% | did not significantly alter any of the targets | plasma concentration of VB302 relative to VB311 ([8]; after VB311 administration): 2.2 x; percent displacement of [3H] SR141716A at human CB1R [10]: -3% |
| CCCCCc1cc(O[C@@H]2O[C@H](CO[C@@H]3O[C@H](CO)[C@@H](O)[C@H](O)[C@H]3O)[C@@H](O[C@@H]3O[C@H](CO)[C@@H](O)[C@H](O)[C@H]3O)[C@H](O)[C@H]2O)c2c(c1)OC(C)(C)[C@@H]1CCC(C)=C[C@@H]21 [VB311] | 1% | -7% | – | very low activity | relative majority of glycosides present in the plasma | majority of glycosides present in the plasma | extensively modified | almost completely digested | 3% | -10% | -3% | 8% | 16% | -7% | -6% | 3% | -6% | 5% | -5% | did not significantly alter any of the targets | digestion by Vinotaste Pro (extent / products) [11]: capable of hydrolyzing; percent displacement of [3H] SR141716A at human CB1R [10]: 3%; digestion by glycoside hydrolase (activity / product) (glycoside hydrolases): digests VB311 to V310 |
